Experimental data published in US20010051646A1, “Method for the improvement of islet signaling in diabetes mellitus and for its prevention” (priority 2000, published 2001).
Several values for one entry are separate records, joined by “and”; a condition that tells them apart may be missing. Equal entries are not always repeated. Entries after “also recorded” stand apart in the source; their conditions may differ. Marks after values point to notes of the source that are not given here.

Columns and labels:
[1] = system: Male Zucker fa/fa rats; assay: OGTT after 21 days treatment: blood glucose and plasma insulin; format: in vivo, rat
Experimental: The parameters monitored were morning blood glucose and plasma insulin levels. […] An OGTT was performed finally on day 21 to monitor blood glucose and plasma insulin kinetics to assess changes in glucose tolerance. Glibenclamide (DAB 1996; R011150/33372) was donated by Berlin-Chemie (Berlin, Germany). Male Zucker (fa/fa) rats of the body weight class of 300 g were purchased from Charles River (Sulzfeld, Germany). Repeated Dosing: 30 male non-diabetic Wistar and 30 male diabetic Zucker rats were randomized to RP (Reference Product: glibenclamide)-, TP- (jest Product: […] Thereafter, the non-diabetic Wistar rats were treated orally once daily with RP (5 mg/kg b.w.) or TP (21.61 mg/kg b.w.) and the diabetic Zucker rats were treated orally once daily with RP (1 mg/kg b.w.) or TP (21.61 mg/kg b.w.) for 21 days at 05.00 p.m. (before regular food intake in the dark phase). The controls were given 1% cellulose solution orally (5 ml/kg). […] The oral drug therapy was continued for one week. […] OGTT: A final OGTT was performed on day 21 with blood sampling from the tail vein. […] The latter were immediately centrifuged and the plasma fractions were stored at −20 ° C. for insulin analysis. Blood glucose: Glucose levels were measured using the glucose oxidase procedure (Super G Glukosemeβgerät; Dr. Müller Gerätebau, Freital, Germany). Plasma insulin: Insulin concentrations were assayed by the antibody RIA method (LINCO Research, Inc. St. Charles, Mo., USA).

[2] = system: healthy male volunteers; assay: First-human study of P32/98 with extended OGTT: active GLP-1, insulin and glucose; format: in vivo; conditions: for Maximum change in GLP-1, active (0-12h, median) / Maximum change in glucose (0-12h, median) / Maximum change in insulin (0-12h, median): OGTT; for Increase of mean insulin concentration after 75 g glucose at 10 min post-dose: within 40-55 min
Excerpt: The 36 healthy male subjects were divided into 3 individual groups with each group containing 12 subjects. […] The subjects in all groups who were receiving placebo were given placebo at both dosing intervals.
Each subject participated in the pre-study and experimental phase, which were separated by a washout phase of at least 5 days. The follow-up examination was done at least 7 days after the last dose of study drug. The study procedures of the six periods were identical, except for the dose under investigation.
At each glucose tolerance test, subjects ingested 300 mL of a mono-/disaccharid solution equivalent to 75 g glucose (Dextro®O.G.-T, Boehringer Mannheim, FRG).
An extended OGTT was performed on Day 1 of each dosing period. Subjects ingested 300 mL of a mono-/disaccharid solution equivalent to 75 g glucose. […] Additionally other pharmacodynamic assessments that are well known in the art were taken.
Insulin: 4.7 ml blood was collected into 4.9 ml EDTA-tubes. Samples were centrifuged (1500 g, 10 min) and stored frozen at −70° C. until laboratory analysis.
Glucose: 1.2 ml blood was collected into 1.2 ml sodium fluoride tubes. Plasma samples were centrifuged at 1500 g for 10 min and stored frozen at −70° C. until laboratory analysis. GLP-1: 2.7 ml blood was collected in EDTA tubes and placed on ice or refrigerated, to which a dipeptidyl peptidase IV-inhibitor was added. The inhibitor was prepared in advance by researchers. Blood was collected in tubes and centrifuged immediately at 1000 g for 10 min in refrigerated centrifuge or the blood was placed in ice and centrifuged within 1 hour and aliquoted into equal samples. Blood was stored in appropriate aliquots at −70° C. (to avoid multiple freezing/thawing cycles) until laboratory analysis.

isoleucyl thiazolidine hemifumarate [P32/98]
Glycemia at the last drug application ([1]; 05.00 p.m., night before day 21): 5.75 ± 0.23 mmol/L | G-AUC in comparison to the placebo application ([1]; day 21): did not increase | Mean blood glucose curve in the OGTT versus controls ([1]; day 21): not different from that of the controls | Blood glucose during OGTT ([1]; day 21, 50 min): 14.54 ± 0.65 mmol/L | Blood glucose during OGTT ([1]; day 21, 120 min): 10.67 ± 0.62 mmol/L | Glycemia after overnight fasting (basal, before OGTT) ([1]; day 21, morning (07.30 a. m.)): 4.88 ± 0.13 mmol/L | Fasting plasma insulin at the beginning of the OGTT ([1]; day 21, overnight fasting, listed as TP): 9.3 ± 1.5 ng/mL and ~9 ng/mL | Plasma insulin after a glucose stimulus ([1]; day 21 OGTT): remained mostly unchanged | Glucose area under the curve (G-AUC0-120 min) ([1]; day 21 OGTT, CO-group 823±41): 895 ± 50 mmol·min/L | I-AUC0-120 min compared with the other groups ([1]; day 21 OGTT, listed as TP): lower than in the CO- or RP-groups (NS); also recorded: slightly lower | Baseline-corrected mean peak (Cmax) glucose concentration ([2]; 7.5 mg): exceeded 4.0 mmol/l | Mean baseline-corrected glucose AUC ([2]; 7.5 mg): > 200 mmol·min/L | Maximum change in GLP-1, active (0-12h, median) ([2]; 7.5 mg oral single dose): 4.10 pmol/L | Maximum change in glucose (0-12h, median) ([2]; 7.5 mg oral single dose): 4.66 mmol/L | Maximum change in insulin (0-12h, median) ([2]; 7.5 mg oral single dose): 41.86 μIU/ml | Corrected AUC0→180 min of glucose concentrations after OGTT, Mean ± SD ([2]; 7.5 mg, periods 1-3): 299.7 ± 111.4 mmol·min | Corrected Cmax of glucose concentrations 0-3 h after OGTT, Mean ± SD ([2]; 7.5 mg, periods 1-3): 4.94 ± 1.58 mmol | Corrected glucose AUC0→180 min, Estimate (ANOVA comparison versus placebo) ([2]; 7.5 mg, periods 1-3): 75.8 mmol·min | Corrected glucose Cmax, Estimate (ANOVA comparison versus placebo) ([2]; 7.5 mg, periods 1-3): 0.78 mmol | Baseline-corrected mean peak (Cmax) glucose concentration ([2]; 15 mg): below 3.0 mmol/l | Increase of group mean active GLP-1 concentration over pre-dose ([2]; 15 mg): 11.6 pmol/L | Mean baseline-corrected glucose AUC ([2]; 15 mg): below 200 mmol*min/l | Maximum change in GLP-1, active (0-12h, median) ([2]; 15 mg oral single dose): 10.00 pmol/L | Maximum change in glucose (0-12h, median) ([2]; 15 mg oral single dose): 2.43 mmol/L | Maximum change in insulin (0-12h, median) ([2]; 15 mg oral single dose): 29.67 μIU/ml | Mean changes of glucose concentration at maximum ([2]; 15 mg, 60 mg and 240 mg dosing groups): 1.71 to 3.41 mmol/L | Corrected AUC0→180 min of glucose concentrations after OGTT, Mean ± SD ([2]; 15 mg, periods 1-3): 130.9 ± 125.2 mmol·min | Corrected Cmax of glucose concentrations 0-3 h after OGTT, Mean ± SD ([2]; 15 mg, periods 1-3): 2.92 ± 1.10 mmol | Corrected glucose AUC0→180 min, Estimate (ANOVA comparison versus placebo) ([2]; 15 mg, periods 1-3): -93.0 mmol·min | Corrected glucose Cmax, Estimate (ANOVA comparison versus placebo) ([2]; 15 mg, periods 1-3): −1.24* mmol | Maximum change in GLP-1, active (0-12h, median) ([2]; 30 mg oral single dose): 10.60 pmol/L | Maximum change in glucose (0-12h, median) ([2]; 30 mg oral single dose): 3.38 mmol/L | Maximum change in insulin (0-12h, median) ([2]; 30 mg oral single dose): 59.84 μIU/ml | Corrected AUC0→180 min of glucose concentrations after OGTT, Mean ± SD ([2]; 30 mg, periods 1-3): 116.1 ± 134.0 mmol·min | Corrected Cmax of glucose concentrations 0-3 h after OGTT, Mean ± SD ([2]; 30 mg, periods 1-3): 3.26 ± 1.07 mmol | Corrected glucose AUC0→180 min, Estimate (ANOVA comparison versus placebo) ([2]; 30 mg, periods 1-3): -107.7 mmol·min | Corrected glucose Cmax, Estimate (ANOVA comparison versus placebo) ([2]; 30 mg, periods 1-3): -0.90 mmol | Increase of mean insulin concentration after 75 g glucose at 10 min post-dose ([2]; 30 mg): 56.92 μIU/ml | Maximum change in GLP-1, active (0-12h, median) ([2]; 60 mg oral single dose): 12.20 pmol/L | Maximum change in glucose (0-12h, median) ([2]; 60 mg oral single dose): 2.92 mmol/L | Maximum change in insulin (0-12h, median) ([2]; 60 mg oral single dose): 43.35 μIU/ml | Corrected AUC0→180 min of glucose concentrations after OGTT, Mean ± SD ([2]; 60 mg, periods 4-6): 151.8 ± 99.2 mmol·min | Corrected Cmax of glucose concentrations 0-3 h after OGTT, Mean ± SD ([2]; 60 mg, periods 4-6): 3.50 ± 1.66 mmol | Corrected glucose AUC0→180 min, Estimate (ANOVA comparison versus placebo) ([2]; 60 mg, periods 4-6): -101.1 mmol·min | Corrected glucose Cmax, Estimate (ANOVA comparison versus placebo) ([2]; 60 mg, periods 4-6): −1.41* mmol | Maximum change in GLP-1, active (0-12h, median) ([2]; 120 mg oral single dose): 11.10 pmol/L | Maximum change in glucose (0-12h, median) ([2]; 120 mg oral single dose): 2.39 mmol/L | Maximum change in insulin (0-12h, median) ([2]; 120 mg oral single dose): 28.63 μIU/ml | Corrected AUC0→180 min of glucose concentrations after OGTT, Mean ± SD ([2]; 120 mg, periods 4-6): 126.7 ± 147.3 mmol·min | Corrected Cmax of glucose concentrations 0-3 h after OGTT, Mean ± SD ([2]; 120 mg, periods 4-6): 3.09 ± 1.47 mmol | Corrected glucose AUC0→180 min, Estimate (ANOVA comparison versus placebo) ([2]; 120 mg, periods 4-6): −126-1* mmol*min/ | Corrected glucose Cmax, Estimate (ANOVA comparison versus placebo) ([2]; 120 mg, periods 4-6): −1.82** mmol | Increase of mean insulin concentration after 75 g glucose at 10 min post-dose ([2]; 120 mg): 30.12 μIU/ml | Baseline-corrected mean peak (Cmax) glucose concentration ([2]; 240 mg): below 3.0 mmol/l | Increase of group mean active GLP-1 concentration over pre-dose ([2]; 240 mg): 15.99 pmol/L | Mean baseline-corrected glucose AUC ([2]; 240 mg): below 200 mmol*min/l | Maximum change in GLP-1, active (0-12h, median) ([2]; 240 mg oral single dose): 14.50 pmol/L | Maximum change in glucose (0-12h, median) ([2]; 240 mg oral single dose): 1.73 mmol/L | Maximum change in insulin (0-12h, median) ([2]; 240 mg oral single dose): 33.36 μIU/ml | Corrected AUC0→180 min of glucose concentrations after OGTT, Mean ± SD ([2]; 240 mg, periods 4-6): 24.7 ± 66.6 mmol·min | Corrected Cmax of glucose concentrations 0-3 h after OGTT, Mean ± SD ([2]; 240 mg, periods 4-6): 1.99 ± 0.69 mmol | Corrected glucose AUC0→180 min, Estimate (ANOVA comparison versus placebo) ([2]; 240 mg, periods 4-6): −228.2*** mmol*min/ | Corrected glucose Cmax, Estimate (ANOVA comparison versus placebo) ([2]; 240 mg, periods 4-6): −2.92*** mmol | Effect on active GLP-1 ([2]; 7.5-mg dose level): no effect discernible from placebo treatment | Increase of glucose concentrations during the OGTT compared with placebo ([2]; 15-240 mg): significantly lower increase | Insulin concentrations following stimulation with 75 g glucose ([2]; 120-240 mg): appeared to be decreased
